Broadly, the melting point is the temperature, or range, at which the solid turns liquid. Consider `O=C(CCC(=O)OCCCC(F)(F)F)Nc1ccc(Br)cn1`, for which the melting point was in the range of 118 to 119 °C. The compound `CC1(CCOC(=O)CCC(=O)Nc2ccc(Br)cn2)OCCO1` [Compound A43, 2-(2-methyl-1,3-dioxolan-2-yl)ethyl 4-[(5-bromo-2-pyridyl)amino]-4-oxo-butanoate] had a melting point of 97 to 98 °C.

(Values after patent US20140371070A1, “PLANT GROWTH REGULATING COMPOUNDS” (Syngenta Participations AG, priority 2011, published 2014).)
